This note sets out measurements from patent publication US20200223889A1, “Bicyclic Compounds Capable of Binding to Melanocortin 4 Receptor” (Novo Nordisk A/S, priority 2017, published 2020).

For assay [1], the target named is T1, human MC4R (Homo sapiens, UniProt P32245).
T1 construct: expressed in transfected cells
Nature of the assay: Functional cAMP assay (CisBio HTRF) in BHK cells expressing human MC4R. It is filed as cell-based. Conditions: for EC50: BHK cells expressing human MC4R, '>' = highest dose used with no response, read-out: MC4R cAMP EC50; for MC1R/MC4R cAMP EC50 ratio: MC1R cAMP EC50 divided by MC4R cAMP EC50. The procedure: In order to assess the potency of the compounds on human MC1R and human MC4R cAMP signalling was measured.
cAMP induction was measured by c-AMPdynamic2 assay, HTRF 62AM4PEC system from CisBio for the human MC1R and human MC4R according to the protocol provided by the vendor. BHK cells expressing the human MC1 or MC4 receptor were generated by stable transfection with expression vectors encoding the cDNA of either MC1R or MC4R.
In details; 25 μl compound—or standard solution were added in the respective wells. Compound was reconstituted in buffer (DMEM w/o phenol red, 10 mM
Hepes, lx Glutamine, 0.1% OV-albumin1, 1 mM IBMX) and serially diluted starting at 2 μM, 10-fold seven times. Dilutions were carried out in the same aforementioned buffer to the desired working concentration ranges (2× higher than the final concentration). 25 μl cell solution was then added and allowed to incubate for 30 min while lightly shaking, at 25° C. […] The provided components for the assay were reconstituted according to the CisBio assay protocol “3.1 supplied reagents and preparation procedure” in MilliQ purification system H2O and diluted 1:20 in lysis buffer. 25 μl cAMP-d2 and 25 μl Cryptate conjugate were added to all wells.
Plates were centrifuged at 1500 rpm for 30 sec and incubated for 1 h, lightly shaking, at 25° C. in a hotel stacker. The plates were read on Mithras LB 940 provided by Berthold Technologies The data were analysed by non-linear regression analysis of binding curves, using the Windows™ program GraphPad™ Prism (GraphPad Software, USA).
The latter is used when no full curve can be obtained in the concentration ranges indicated above.
(Cyclic AMP is a second messenger, typically raised through Gs and lowered through Gi signalling.)

The target in assay [2] is T1, human MC4R. Nature of the assay: 125NDP-α-MSH competitive binding to membranes of BHK cells expressing human MC4 receptor (filtration assay). As to conditions: human MC4R, BHK cell membranes, 125NDP-α-MSH radioligand; read-out: MC4R binding Ki. The procedure:
In Vitro ^125NDP-α-MSH Binding to Recombinant BHK Cells Expressing Human MC4 Receptor (Filtration Assay)
In order to assess the binding affinity of the selected compounds for the human MC4R competitive binding assays was performed with radiolabeled NDP-alpha MSH (^125NDP-α-MSH).
The assay was performed in 96-well filterplates (Unifilter) using BHK cells stably expressing the human MC4 receptor.
The BHK cell membranes were prepared from frozen or fresh cells that were homogenized in 20 mM HEPES pH 7.1, 5 mM MgCl2, 1 mg/ml bacitracin (buffer 1) and centrifuged at 15000 rpm at 4° C., 10 min in a Sorvall RC 5B plus, SS-34 rotor. The supernatant was discarded, and the pellets were re-suspended in buffer 1, homogenized and centrifuged two more times. The final pellets were re-suspended in buffer 1 and the protein concentration was measured and adjusted with buffer 1 to 5 mg/ml and the membrane preparation was kept at −80° C. until assay. The assay was run on a dilution of this cell membrane suspension without any further preparation. The suspension was diluted to give maximally 10% specific binding, i.e. to approx. 50-100 fold dilution, optimized after each membrane preparation. The assay was performed in a total volume of 200 μl: 50 μl of cell suspension, 50 μl of ^125NDP-α-MSH (apx. […] in final concentration), 50 μl of test compound and 50 μl binding buffer were mixed and incubated for 2 h at 25° C. (binding buffer: 25 mM HEPES, pH 7.0, 1 mM CaCl2), 1 mM MgSO4, 1 mM EGTA, 0.005% Tween™ 20 and 0.1% HSA or, alternatively, 0.1% ovalbumin (Sigma; catalogue No. A-5503)). Test compounds were dissolved in 100% DMSO and diluted in binding buffer in a dose range from 1 μM to 0.001 nM. Radiolabelled ligand and membranes were diluted in binding buffer. The incubation was stopped by dilution with 8×100 μl ice-cold 0.9% NaCl. The radioactivity retained on the filters was counted using a Packard Topcounter. The data were analysed by non-linear regression analysis of binding curves, using the Windows™ program GraphPad™ Prism (GraphPad Software, USA).

Positions of bridges follow the written chain, without caps; N, C: chain ends. Non-standard residues stand in square brackets, D forms with d. Residues, ends and D or L forms follow the SMILES beside them. 1Nal = N[C@@H](Cc1cccc2ccccc12)C(=O)O; Cit = NC(=O)NCCC[C@H](N)C(=O)O; βAla = NCCC(=O)O

T1 sequence (P32245 whole entry): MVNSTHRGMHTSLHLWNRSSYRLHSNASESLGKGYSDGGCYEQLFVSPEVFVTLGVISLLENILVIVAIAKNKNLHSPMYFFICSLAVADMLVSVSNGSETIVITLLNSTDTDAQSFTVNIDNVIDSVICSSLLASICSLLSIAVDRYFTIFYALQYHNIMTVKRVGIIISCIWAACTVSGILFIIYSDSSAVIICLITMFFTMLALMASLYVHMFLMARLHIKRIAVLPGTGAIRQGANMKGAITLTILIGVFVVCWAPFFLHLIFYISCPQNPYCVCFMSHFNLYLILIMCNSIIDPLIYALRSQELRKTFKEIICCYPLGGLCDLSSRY

By EC50 is commonly meant the concentration at which the effect is half-maximal. The term Ki denotes a measure of affinity in units of concentration, obtained from inhibition or displacement. Take `N=C(N)NCCC[C@@H]1NC(=O)[C@@H]2CSSC[C@H](NC(=O)[C@H](Cc3c[nH]c4ccccc34)NC(=O)[C@H](CCCNC(N)=O)NC(=O)[C@@H](Cc3ccccc3)NC(=O)[C@H](Cc3c[nH]cn3)NC1=O)C(=O)N[C@@H](CCCNC(=N)N)C(=O)N[C@@H](Cc1c[nH]cn1)C(=O)N[C@H](Cc1ccccc1)C(=O)N[C@@H](CCCNC(N)=O)C(=O)N[C@@H](Cc1c[nH]c3ccccc13)C(=O)N2` [Chem. 54, c[c[Cys-Arg-His-D-Phe-Cit-Trp-Cys]- Arg-His-D-Phe-Cit-Trp]] (cyclo(CRH[dF][Cit]WCRH[dF][Cit]W); disulfide 1-7): at human MC4R [1], the 50% effective concentration (EC50) came to 0.04 nM and the “MC1R/MC4R cAMP EC50 ratio” value was determined as 7. On human MC4R [2], the Ki amounted to 0.21 nM.

Take `C[C@@H]1NC(=O)[C@@H]2CSSC[C@H](NC(=O)[C@H](Cc3cccc4ccccc34)NC(=O)[C@H](CCCNC(=N)N)NC(=O)[C@@H](Cc3ccccc3)NC(=O)[C@H](Cc3c[nH]cn3)NC1=O)C(=O)N[C@@H](C)C(=O)N[C@@H](CCCCN)C(=O)N[C@@H](CCCCN)C(=O)N[C@@H](CCCCN)C(=O)N[C@@H](Cc1c[nH]c3ccccc13)C(=O)N2` [Chem. 64, c[c[Cys-Ala-His-D-Phe-Arg-1-Nal- Cys]-Ala-Lys-Lys-Lys-Trp]] (cyclo([1Nal]CAKKKWCAH[dF]R); disulfide 2-8): at human MC4R [1], the 50% effective concentration (EC50) turned out to be 0.03 nM and the “MC1R/MC4R cAMP EC50 ratio” value came to 141. Also, the inhibition constant Ki at human MC4R [2] was 0.09 nM.

Regarding `C[C@@H]1NC(=O)[C@@H]2CSSC[C@H](NC(=O)[C@H](CCCNC(=N)N)NC(=O)[C@H](Cc3c[nH]cn3)NC(=O)[C@H](CCCCN)NC(=O)[C@H](CCCCN)NC1=O)C(=O)N1CCC[C@H]1C(=O)N[C@@H](Cc1c[nH]cn1)C(=O)N[C@H](Cc1ccccc1)C(=O)N[C@@H](Cc1c[nH]cn1)C(=O)N[C@@H](Cc1c[nH]c3ccccc13)C(=O)N2` [Chem. 95, c[c[Cys-Pro-His-D-Phe-His-Trp-Cys]- Ala-Lys-Lys-His-Arg]] (cyclo(AKKHRCPH[dF]HWC); disulfide 6-12), on human MC4R [1], the 50% effective concentration (EC50) was 0.22 nM and the “MC1R/MC4R cAMP EC50 ratio” value is 399. Moreover, at human MC4R [2], the inhibition constant Ki turned out to be 0.07 nM.

Regarding `CC(C)[C@@H]1NC(=O)[C@@H]2CSSC[C@H](NC(=O)[C@H](Cc3c[nH]c4ccccc34)NC(=O)[C@H](CCCNC(=N)N)NC(=O)[C@@H](Cc3ccccc3)NC(=O)[C@H](Cc3c[nH]cn3)NC1=O)C(=O)N[C@@H](C(C)C)C(=O)N[C@@H](Cc1c[nH]cn1)C(=O)N[C@H](Cc1ccccc1)C(=O)N[C@@H](CCCNC(=N)N)C(=O)N[C@@H](Cc1c[nH]c3ccccc13)C(=O)N2` [Chem. 36, c[c[Cys-Val-His-D-Phe-Arg-Trp-Cys]- Val-His-D-Phe-Arg-Trp]] (cyclo(CVH[dF]RWCVH[dF]RW); disulfide 1-7), at human MC4R [1], the concentration giving a half-maximal response (EC50) is 0.04 nM and the “MC1R/MC4R cAMP EC50 ratio” value is listed as 26. Moreover, on human MC4R [2], the Ki was found to be 0.12 nM.

For `N=C(N)NCCC[C@@H]1NC(=O)[C@@H](Cc2ccccc2)NC(=O)[C@H](Cc2c[nH]cn2)NC(=O)CCNC(=O)[C@@H]2CSSC[C@H](NC(=O)[C@H](Cc3c[nH]c4ccccc34)NC1=O)C(=O)NCCC(=O)N[C@@H](Cc1c[nH]cn1)C(=O)N[C@H](Cc1ccccc1)C(=O)N[C@@H](CCCNC(=N)N)C(=O)N[C@@H](Cc1c[nH]c3ccccc13)C(=O)N2` [Chem. 25, c[c[Cys-βAla-His-D-Phe-Arg-Trp- Cys]-βAla-His-D-Phe-Arg-Trp]] (cyclo(C[βAla]H[dF]RWC[βAla]H[dF]RW); disulfide 1-7), at human MC4R [1], the EC50 is 0.02 nM and the “MC1R/MC4R cAMP EC50 ratio” value came out at 17. Moreover, the inhibitory constant (Ki) on human MC4R [2] came to 0.04 nM.

For `N=C(N)NCCC[C@@H]1NC(=O)[C@@H](Cc2ccccc2)NC(=O)[C@H](Cc2c[nH]cn2)NC(=O)[C@@H]2CCCN2C(=O)[C@@H]2CSSC[C@H](NC(=O)[C@H](Cc3c[nH]c4ccccc34)NC1=O)C(=O)N1CCC[C@H]1C(=O)N[C@@H](Cc1c[nH]cn1)C(=O)N[C@H](Cc1ccccc1)C(=O)N[C@@H](CCCNC(=N)N)C(=O)N[C@@H](Cc1c[nH]c3ccccc13)C(=O)N2` [Chem. 30, c[c[Cys-Pro-His-D-Phe-Arg-Trp-Cys]- Pro-His-D-Phe-Arg-Trp]] (cyclo(CPH[dF]RWCPH[dF]RW); disulfide 1-7), on human MC4R [1], the EC50 came to 0.03 nM and the “MC1R/MC4R cAMP EC50 ratio” value came out at 5. The Ki at human MC4R [2] is 0.09 nM.
